Measured values reported in patent USRE37781E1, “Substituted cyclic carbonyls and derivatives thereof useful as retroviral protease inhibitors” (DuPont Pharmaceuticals Company, priority 1991, dated 2002).
Converted amounts (≈) assume the structure as drawn. Read-outs that look alike come from different tables or passages of the source.

How the values were obtained:
HIV protease = target: T1, HIV protease (Human immunodeficiency virus type 1 group M subtype B, UniProt P04585); assay: biochemical; design: species or system HIV-1
T1 construct: plasmid containing HIV protease under the control of an inducible T7 promoter; made in house; host or cells: E. coli (inclusion bodies, T7 promoter)
Description: HIV Protease Inhibition Assay—Spectroscopic Method
Inclusion bodies were solubilized in 8M urea, 50 mM tris pH 8.0. Protease activity was recovered by dilution 20-fold into buffer containing 50 mM sodium acetate pH 5.5, 1 mM EDTA, 10% glycerol and 5% ethylene glycol. Enzyme was used at a final concentration of 1.0-10 ug/ml.
Stock solutions of 10 mM were prepared in DMSO.
All further dilutions were done in DMSO.

HIV-1 (RF) in MT-2 cells = assay: microbe, parasite or virus in culture; format: cell-based
How it was run: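 Read-out: gag and pol viral RNA captured by 5′-biotinylated oligonucleotides on streptavidin-coated wells, detected with alkaline phosphatase-linked reporter oligonucleotides, calibrated against BH10 in vitro transcripts. Virus stocks (RF, MN, IIIB) come from H9 cultures; MT-2 host cells kept in RPMI 1640, 5% FCS.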

[1] = second table headed Table 2A, read-out: Ki
[2] = Human immunodeficiency virus 1, MT2, Table 1c, read-out: IC90
[3] = Human immunodeficiency virus 1, MT2, Table 1e, read-out: IC90
[4] = Table 1d, upper part, read-out: Ki
[5] = Human immunodeficiency virus 1, MT2, 24 h, Table 1d, upper part, read-out: IC90

Work on C=CCN1C(=O)N(CC=C(C)C)C(Cc2ccccc2)C(O)C(O)C1Cc1ccccc1 (stereo not drawn) [Example 2C] yielded a Ki (HIV protease; Table 2A, read-out: Ki) of less than 10 nM, a Ki (HIV protease; [1]) of less than 10 nM and an IC90 (HIV-1 (RF) in MT-2 cells; Human immunodeficiency virus 1, MT2, Table 2A, read-out: IC90) of less than 10 µg/mL. For the same compound, the IC90 (HIV-1 (RF) in MT-2 cells; Human immunodeficiency virus 1, MT2, second table headed Table 2A, read-out: IC90) was less than 10 µg/mL and the melting point was 62 °C.

Work on N#CN=C1N(CC2CCCCC2)C(Cc2ccccc2)C(O)C(O)C(Cc2ccccc2)N1CC1CCCCC1 (stereo not drawn) [Example 1CJ] yielded a Ki (HIV protease; Ki) of less than 10 nM, an IC90 (HIV-1 (RF) in MT-2 cells; [2]) of less than 10 µg/mL and a melting point of 96.4 °C.

In the case of N#CN=C1N(Cc2ccccc2)C(Cc2ccccc2)C(O)C(O)C(Cc2ccccc2)N1Cc1ccccc1 (stereo not drawn) [Example 1BZ], the Ki (HIV protease; Ki) is reported as 10 to 1000 nM, the IC90 (HIV-1 (RF) in MT-2 cells; [2]) is reported as less than 10 µg/mL and the melting point is reported as 94 °C.

N#CN=C1N(Cc2ccc3ccccc3c2)C(Cc2ccccc2)C(O)C(O)C(Cc2ccccc2)N1Cc1ccc2ccccc2c1 (stereo not drawn) [Example 1BY] gave a Ki (HIV protease; Ki) of 10 to 1000 nM, an IC90 (HIV-1 (RF) in MT-2 cells; [2]) greater than 100 µg/mL and a melting point of 111.1 °C.

In the case of N#CN=C1N(Cc2cccc(C#N)c2)C(Cc2ccccc2)C(O)C(O)C(Cc2ccccc2)N1Cc1cccc(C#N)c1 (stereo not drawn) [Example 1CH], the Ki (HIV protease; Ki) is reported as 10 to 1000 nM, the IC90 (HIV-1 (RF) in MT-2 cells; [2]) is reported as less than 10 µg/mL and the melting point is reported as 108.5 °C.

Compound [N-]=[N+]=NC(Cc1ccccc1)C1C(O)C(Cc2ccccc2)N(Cc2ccc3ccccc3c2)C(=O)N1Cc1ccc2ccccc2c1 (stereo not drawn) [Example 7Y] has a Ki (HIV protease; Table 1e, read-out: Ki) of 10 to 1000 nM and an IC90 (HIV-1 (RF) in MT-2 cells; [3]) greater than 100 µg/mL.

For O=C1N(CCN2CCOCC2)C(Cc2ccccc2)C(O)C(O)C(Cc2ccccc2)N1CCN1CCOCC1 (stereo not drawn) [Example 1AA], the Ki (HIV protease; Table 1a, read-out: Ki) was greater than 1000 nM and the melting point was 70 to 75 °C.

With O=C1N(Cc2cccc(-c3noc(C(F)(F)F)n3)c2)[C@H](CCc2ccccc2)[C@@H](O)[C@@H](Cc2ccccc2)N1Cc1cccc(-c2noc(C(F)(F)F)n2)c1 [Example 8X] the Ki (HIV protease; Table 1e, read-out: Ki) was 10 to 1000 nM and the IC90 (HIV-1 (RF) in MT-2 cells; [3]) was 10 to 100 µg/mL (≈ 13.1 to 131 µM).

Work on O=C1OC2C(OC1=O)C(Cc1ccccc1)N(Cc1ccc3ccccc3c1)C(=O)N(Cc1ccc3ccccc3c1)C2Cc1ccccc1 (stereo not drawn) [Example 7P] yielded a Ki (HIV protease; [4]) of less than 10 nM and an IC90 (HIV-1 (RF) in MT-2 cells; [5]) of less than 10 µg/mL.

CCN1C(=O)N(CC)C(Cc2ccccc2)C(O)C(O)C1Cc1ccccc1 (stereo not drawn) [Example 1AD] gave a Ki (HIV protease; Table 1a, read-out: Ki) of 10 to 1000 nM and a melting point of 214 to 215 °C.

Work on O=C1N(Cc2cccc(CO)c2)C(Cc2ccccc2)C(O)C(C(Br)Cc2ccccc2)N1Cc1cccc(CO)c1 (stereo not drawn) [Example 8V] yielded a Ki (HIV protease; Table 1e, read-out: Ki) of 10 to 1000 nM and an IC90 (HIV-1 (RF) in MT-2 cells; [3]) of less than 10 µg/mL.

With CCCC1(OC)OC2C(O1)C(Cc1ccccc1)N(Cc1ccc3ccccc3c1)C(=O)N(Cc1ccc3ccccc3c1)C2Cc1ccccc1 (stereo not drawn) [Example 7S] the Ki (HIV protease; [4]) was greater than 1000 nM and the IC90 (HIV-1 (RF) in MT-2 cells; [5]) was greater than 50 µg/mL.

Work on O=C1N(CC2CC2)C(C(O)Cc2ccccc2)[C@@H](O)[C@@H](Cc2ccccc2)N1CC1CC1 (stereo partly drawn) [Example 7Z] yielded a Ki (HIV protease; Table 1e, read-out: Ki) of 10 to 1000 nM and an IC90 (HIV-1 (RF) in MT-2 cells; [3]) of less than 10 µg/mL.

Work on CCCCCCN1C(=O)N(CCCCCC)C(Cc2ccccc2)C(O)C(O)C1Cc1ccccc1 (stereo not drawn) [Example 1Y] yielded a Ki (HIV protease; Ki) of less than 10 nM and a melting point of 110 to 112 °C.

With N#Cc1cccc(CN2C(=O)N(Cc3cccc(C#N)c3)[C@H](Cc3ccccc3)[C@H](O)C2CCc2ccccc2)c1 (stereo partly drawn) [Example 8AN] the Ki (HIV protease; Ki) was greater than 1000 nM and the IC90 (HIV-1 (RF) in MT-2 cells; Table 1e) was “+ (+=>100 μg/mL)”.

CC1(C)OC2C(O1)C(Cc1ccccc1)N(Cc1ccc3ccccc3c1)C(=O)N(Cc1ccc3ccccc3c1)C2Cc1ccccc1 (stereo not drawn) [Example 7R] gave a Ki (HIV protease; [4]) greater than 1000 nM and an IC90 (HIV-1 (RF) in MT-2 cells; [5]) greater than 100 µg/mL.

Work on CC(C)CCCN1C(=O)N(CCCC(C)C)C(Cc2ccccc2)C(O)C(O)C1Cc1ccccc1 (stereo not drawn) [Example 1AM] yielded a Ki (HIV protease; Ki) of less than 10 nM and a melting point of 120 to 122 °C.

For NC(=NO)c1cccc(CN2C(=O)N3C(Cc4ccccc4)C3C(O)C2Cc2ccccc2)c1 (stereo not drawn) [Example 21H], the Ki (HIV protease; Table 2j, read-out: Ki) was 10 to 1000 nM and the IC90 (HIV-1 (RF) in MT-2 cells; Table 2j) was “+++ (+++=<10 μg/mL)”.

CCCCCN1C(=O)N(CCCCC)C(Cc2ccccc2)C(O)C(O)C1Cc1ccccc1 (stereo not drawn) [Example 1AK] showed a Ki (HIV protease; Ki) of less than 10 nM and a melting point of 125 to 127 °C.

In the case of O=C1N(CC2CC2)[C@H](Cc2ccccc2)C[C@@H](O)[C@@H](Cc2ccccc2)N1CC1CC1 [Example 7U], the Ki (HIV protease; [4]) is reported as less than 10 nM and the IC90 (HIV-1 (RF) in MT-2 cells; [5]) is reported as less than 10 µg/mL.

O=C1N(Cc2cc(F)cc(C(F)(F)F)c2)C(Cc2ccccc2)C(O)C(O)C(Cc2ccccc2)N1Cc1cc(F)cc(C(F)(F)F)c1 (stereo not drawn) [Example 2M] showed a Ki (HIV protease; Table 2A, read-out: Ki) of 10 to 1000 nM, a Ki (HIV protease; [1]) of 10 to 1000 nM and a melting point of 162.3 °C.

N#CN=C1N(Cc2cccc(C=O)c2)C(Cc2ccccc2)C(O)C(O)C(Cc2ccccc2)N1Cc1cccc(C=O)c1 (stereo not drawn) [Example 1CP] showed a Ki (HIV protease; Ki) of less than 10 nM and an IC90 (HIV-1 (RF) in MT-2 cells; [2]) of less than 10 µg/mL.

O=C1N(CC2CC2)C(Cc2ccccc2)C2OC(=S)OC2C(Cc2ccccc2)N1CC1CC1 (stereo not drawn) [Example 7I] showed a Ki (HIV protease; [4]) of 10 to 1000 nM and an IC90 (HIV-1 (RF) in MT-2 cells; [5]) of less than 10 µg/mL.
